Experimental data from the supplement of paper PMC10307832.

Columns and labels:
Experiment in all cases: relative viability (nuclei count vs DMSO), 5 days (fraction); higher = more cells survive
[1] = compound: C1=CC=C2C(=C1)N=C(S2)C(C#N)C3=NC(=NC=C3)NCCC4=CN=CC=C4 + COc1cccc2cc(-c3nc([C@H]4CC[C@H](C(=O)O)CC4)n4ncnc(N)c34)[nH]c12 [OSI-027] (partner 0.5 µM)
Outline: (§1)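 Lung cancer cell lines were seeded in 1536-well plates and dosed by pin tool the next day, with either a single drug or a fixed anchor-drug dose combined with five library-drug doses (not always all listed) spaced in √10 steps. Five days later, one step fixed the cells and stained their nuclei (final 0.05% Triton X-100, 1% formaldehyde, 1 ug/ml Hoechst), and nuclei were counted on 4× images. Relative viability is the nuclei count in treated wells divided by the count in vehicle wells, and each value is the median of duplicate plates.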

[2] = compound: COc1cc2/c(=N/c3ccc(Br)cc3F)nc[nH]c2cc1OCC1CCN(C)CC1 [Vandetanib] + CC(=O)Nc1cccc(-n2c(=O)n(C3CC3)c(=O)c3c(Nc4ccc(I)cc4F)n(C)c(=O)c(C)c32)c1 [Trametinib] (partner 0.02 µM)
Outline: as §1

[3] = compound: C1=CC=C2C(=C1)N=C(S2)C(C#N)C3=NC(=NC=C3)NCCC4=CN=CC=C4 + CC(=O)Nc1cccc(-n2c(=O)n(C3CC3)c(=O)c3c(Nc4ccc(I)cc4F)n(C)c(=O)c(C)c32)c1 [Trametinib] (partner 0.02 µM)
Outline: as §1

[4] = compound: C#Cc1cccc(Nc2ncnc3cc(OC)c(OCCCCCCC(=O)NO)cc23)c1 [CUDC-101] + O=C(CCCCCCC(=O)Nc1ccccc1)NO [Vorinostat] (partner 1 µM)
Outline: as §1

Cell Line | relative viability ([1]; first compound 0.005 µM) | relative viability ([1]; first compound 0.01581 µM) | relative viability ([1]; first compound 0.05 µM) | relative viability ([1]; first compound 0.1581 µM) | relative viability ([1]; first compound 0.5 µM) | relative viability ([2]; first compound 0.02 µM) | relative viability ([2]; first compound 0.06325 µM) | relative viability ([2]; first compound 0.2 µM) | relative viability ([2]; first compound 0.6325 µM) | relative viability ([2]; first compound 2 µM) | relative viability ([3]; first compound 0.005 µM) | relative viability ([3]; first compound 0.01581 µM) | relative viability ([3]; first compound 0.05 µM) | relative viability ([3]; first compound 0.1581 µM) | relative viability ([3]; first compound 0.5 µM) | relative viability ([4]; first compound 0.01 µM) | relative viability ([4]; first compound 0.03162 µM) | relative viability ([4]; first compound 0.1 µM) | relative viability ([4]; first compound 0.3162 µM) | relative viability ([4]; first compound 1 µM)
NCI-H520 | 0.199 | 0.261 | 0.222 | 0.32 | 0.272 | 0.627 | 0.642 | 0.577 | 0.687 | 0.68 | 0.659 | 0.684 | 0.765 | 0.799 | 0.824 | 0.769 | 0.686 | 0.488 | 0.397 | 0.32
NCI-H522 | 0.674 | 0.681 | 0.717 | 0.713 | 0.685 | 0.87 | 0.818 | 0.856 | 0.791 | 0.771 | 0.98 | 0.846 | 0.766 | 0.755 | 0.761 | 0.758 | 0.769 | 1.09 | 0.921 | 0.779
NCI-H596 | 0.541 | 0.682 | 0.595 | 0.826 | 0.674 | 0.773 | 0.763 | 0.756 | 0.758 | 0.634 | 0.7 | 0.86 | 0.762 | 0.777 | 0.765 | 0.569 | 0.605 | 0.501 | 0.735 | 0.501
NCI-H647 | 0.638 | 0.585 | 0.491 | 0.756 | 0.527 | 0.458 | 0.474 | 0.469 | 0.451 | 0.436 | 0.407 | 0.515 | 0.45 | 0.546 | 0.451 | 0.479 | 0.465 | 0.664 | 0.427 | 0.262
NCI-H650 | 0.521 | – | 0.544 | 0.475 | 0.486 | 0.995 | 0.927 | 0.947 | 0.929 | 0.981 | 0.969 | 0.968 | 0.863 | 1.04 | 1.04 | 0.547 | 0.517 | 0.414 | 0.456 | 0.51
NCI-H661 | 0.638 | 0.687 | 0.689 | 0.748 | 0.682 | 0.55 | 0.543 | 0.63 | 0.601 | 0.532 | 0.423 | 0.535 | 0.542 | 0.674 | 0.589 | 0.783 | 0.764 | 0.748 | 0.534 | 0.362
NCI-H727 | 0.814 | 0.526 | 0.568 | 0.748 | 0.508 | 0.417 | 0.379 | 0.366 | 0.364 | 0.329 | 0.39 | 0.364 | 0.399 | 0.381 | 0.407 | 1.28 | 1.15 | 0.958 | 1.04 | 0.642
NCI-H838 | 0.4 | 0.351 | 0.361 | 0.459 | 0.396 | 0.528 | 0.463 | 0.539 | 0.484 | 0.533 | 0.576 | 0.507 | 0.492 | 0.561 | 0.593 | 0.719 | 0.741 | 0.708 | 0.555 | 0.372
NCI-H1355 | 0.402 | 0.348 | 0.341 | 0.411 | 0.369 | 0.412 | 0.426 | 0.438 | 0.465 | 0.402 | 0.439 | 0.425 | 0.473 | 0.494 | 0.324 | 0.693 | 0.663 | 0.636 | 0.62 | 0.497
NCI-H1395 | 0.606 | 0.515 | 0.569 | 0.843 | 0.658 | 1.06 | 1.01 | 0.956 | 1.13 | 1.05 | 0.983 | – | 0.949 | 1.2 | 0.979 | 0.81 | 0.753 | 0.797 | 0.661 | 0.489
NCI-H1437 | 0.855 | 0.817 | 0.93 | 0.917 | 0.723 | 0.592 | 0.466 | 0.557 | 0.432 | 0.517 | 0.503 | 0.55 | 0.52 | 0.539 | 0.427 | 0.864 | 0.857 | 0.814 | 0.808 | 0.495
NCI-H1648 | 0.238 | 0.239 | 0.289 | 0.26 | 0.28 | 0.426 | 0.461 | 0.512 | 0.541 | 0.506 | – | 0.486 | – | 0.499 | 0.498 | 0.631 | 0.378 | 0.333 | 0.225 | 0.22
NCI-H1650 | 0.557 | 0.56 | 0.611 | 0.689 | 0.354 | 0.618 | 0.409 | 0.461 | 0.483 | 0.364 | 0.49 | 0.492 | 0.604 | 0.715 | 0.513 | 0.532 | 0.352 | 0.517 | 0.615 | 0.41
